From ChEMBL document CHEMBL1130480, “Structure-activity relationship of cantharidin derivatives to protein phosphatases 1, 2A1, and 2B” (Bioorg Med Chem Lett, 1997)

What was measured:
Oryctolagus cuniculus [1] = species on record: Oryctolagus cuniculus; experiment: Inhibition of Protein phosphatase 1 at 0.1 mM
Oryctolagus cuniculus [2] = species on record: Oryctolagus cuniculus; experiment: Inhibition of Protein phosphatase 1 at 1 mM
Oryctolagus cuniculus [3] = species on record: Oryctolagus cuniculus; experiment: Inhibition of Protein phosphatase 2A1 (PP2A1) at 0.1 mM
Oryctolagus cuniculus [4] = species on record: Oryctolagus cuniculus; experiment: Inhibition of Protein phosphatase 2A1 (PP2A1) at 1 mM
Bos taurus [5] = species on record: Bos taurus; experiment: Inhibition of Protein phosphatase 2B (PP2B) at 0.1 mM
Bos taurus [6] = species on record: Bos taurus; experiment: Inhibition of Protein phosphatase 2B (PP2B) at 1 mM

Row | Compound | inhibition (Oryctolagus cuniculus [1]) [%] | inhibition (Oryctolagus cuniculus [2]) [%] | inhibition (Oryctolagus cuniculus [3]) [%] | inhibition (Oryctolagus cuniculus [4]) [%] | inhibition (Bos taurus [5]) [%] | inhibition (Bos taurus [6]) [%]
1 | O=C1OC(=O)C2C3OC(C=C3COC3CCCCC3)C12 (centres undefined) | 50 | 60 | 80 | 100 | 30 | 70
2 | C[C@@]12C(=O)OC(=O)[C@]1(C)C1CCC2O1 | 85 | 90 | 85 | 98 | 15 | 38
3 | O=C1OC(=O)C2C3OC(CC3COC3CCCCC3)C12 (centres undefined) | 70 | 90 | 75 | 100 | 40 | 100
4 | CC(=O)OCC1=CC2OC1C1C(=O)OC(=O)C21 (centres undefined) | 59 | 92 | 60 | 98 | 25 | 90
5 | O=C1OC(=O)C2C3C=CC(O3)C12 (centres undefined) | 95 | 98 | 95 | 95 | 40 | 99
6 | CC(=O)OCC12C=CC(O1)C(C(=O)O)C2C(=O)O (centres undefined) | 5 | 40 | 0 | 25 | 10 | 60
7 | O=C1OC(=O)C2C3CCC(O3)C12 (centres undefined) | 95 | 100 | 94 | 100 | 35 | 98
8 | CC(=O)OCC1=CC2OC1C(C(=O)O)C2C(=O)O (centres undefined) | 50 | 80 | 40 | 90 | 20 | 89
9 | CC(=O)OCC1CC2OC1C1C(=O)OC(=O)C21 (centres undefined) | 90 | 100 | 70 | 98 | 20 | 85
10 | O=C1OC(=O)C2C1C1C=CC2(CO)O1 (centres undefined) | 8 | 18 | 5 | 12 | 10 | 50
11 | CC12CCC(C)(O1)C(C(=O)O)C2C(=O)O (centres undefined) | 0 | 1 | 0 | 2 | 17 | 18
12 | CC(=O)OCC12CCC(O1)C1C(=O)OC(=O)C12 (centres undefined) | 20 | 70 | 5 | 50 | 30 | 45
13 | O=C(O)C1C2CCC3(COC(=O)C13)O2 (centres undefined) | 9 | 20 | 8 | 8 | 18 | 20
14 | CC(=O)OCC12C=CC(O1)C1C(=O)OC(=O)C12 (centres undefined) | 5 | 30 | 5 | 40 | 10 | 50
